The text below walks through data of patent US20030032824A1, “Meiosis regulating compounds” (priority 1996, published 2003).

One experiment has as its system CEO and NO. To be noted: CEO and NO in vitro, previously shown; cited from earlier work.
Experiment [1] has as its system cumulus enclosed oocytes (CEO). In words: Oocyte test, inhibition of FF-MAS induced meiosis in cumulus enclosed oocytes (CEO). In kind it is cell-based, mice. As for the experimental part:
(§1) The ovaries were dissected out and the oocytes were isolated in Hx-medium (see below) under a stereo microscope by manual rupture of the follicles using a pair of 27 gauge needles. Spherical oocytes displaying an intact germinal vesicle (GV) were divided in cumulus enclosed oocytes (CEO) and naked oocytes (NO) and placed in α-minimum essential medium (α-MEM without ribonucleosides, Gibco BRL, Cat. No. 22561) supplemented with 3 mM hypoxanthine (Sigma Cat. No. H-9377), 8 mg/ml Human Serum Albumin (HSA, State Serum Institute, Denmark), 0.23 mM pyruvate (Sigma, Cat. No S-8636), 2 mM glutamine (Flow Cat. No. 16-801), 100 IU/mi penicillin and 100 μg/ml streptomycin (Flow, Cat No. 16-700). This medium was designated Hx-medium.
(§2) The cultures were performed at 37° C. and 100% humidity with 5% CO2 in air. The culture time was 22-24 hours.
(§3) By the end of the culture period, the number of oocytes with germinal vesicle (GV) or germinal vesicle breakdown (GVB) and those with polar body (PB) was counted using a stereo microscope or an inverted microscope with differential interference contrast equipment. The percentage of oocytes with GVB per total number of oocytes and the percentage of oocytes with PB per total number of oocytes was calculated in the test cultures and compared to the control culture.
(§4) Germinal vesicle (GV) oocytes were obtained from immature FSH treated female mice using the same methods as described in Example 1 (see above). The oocytes were rinsed three times in Hx-medium and oocytes of uniform size were divided into groups of CEO and NO. […] CEO and NO were cultured in Hx-medium supplemented with 0.7-7.0 μM FF-MAS in co-culture with the test compounds in different concentrations in 4-well multidishes (Nunclon, Denmark) in which each well contained 0.4 ml of Hx-medium and 35-45 oocytes. One control (i.e., 35-45 oocytes cultured in Hx-medium containing FF-MAS with no addition of test compound) was always run simultaneously with the test cultures, which were supplemented with different concentrations of the compounds to be tested.

The subject of experiment [2] is naked oocytes (NO). In words: Oocyte test, inhibition of FF-MAS induced meiosis in naked oocytes (NO). The experiment is classed as cell-based, mice. As for the experimental part:
as §1, §2, §3, §4

Experiment [3] deals with cumulus enclosed oocytes (CEO). The experiment is described as follows: Oocyte test, activation of meiosis in cumulus enclosed oocytes (CEO) cultured in Hx-medium. The experiment is classed as cell-based, mice. As for the experimental part: (§5) Oocytes were obtained from immature female mice (C57BI/6J×DBA/2J F1-hybrids, Bomholtgaard, Denmark) weighing 13-16 grams, that were kept under controlled lighting and temperature. The mice received an intra-peritoneal injection of 0.2 ml gonadotropins (Gonal-F, Serono, Solna, Sweden, containing 20 IU FSH, alternatively, Puregon, Organon, Swords, Ireland containing 20 IU FSH) and 48 hours later the animals were killed by cervical dislocation.
as §1
(§6) The oocytes were rinsed three times in Hx-medium and oocytes of uniform size were divided into groups of CEO and NO. CEO and NO were cultured in 4-well multidishes (Nunclon, Denmark) in which each well contained 0.4 ml of Hx-medium and 35-45 oocytes. […]
as §3

Experiment [4] has as its system naked oocytes (NO). The experiment is described as follows: Oocyte test, activation of meiosis in naked oocytes (NO) cultured in Hx-medium. In kind it is cell-based, mice. As for the experimental part:
as §5, §1, §6, §3

Setting [5] is: FF-MAS 0.7 μM alone (control, no 22R).
The mark [6] stands for this setting: FF-MAS 7 μM alone (control, no 22R).
The mark [7] stands for this setting: FF-MAS 1.2 μM alone (control, no 22R).
[8] abbreviates: FF-MAS 0.7 μM + 22R 25 μM (ratio 1:36).
Where [9] appears, read: FF-MAS 7 μM + 22R 12.5 μM (ratio 1:2).
The mark [10] stands for this setting: FF-MAS 0.7 μM + 22R 13 μM (ratio 1:19).
Where [11] appears, read: FF-MAS 1.2 μM + 22R 25 μM (ratio 1:20).
Where [12] appears, read: CEO, test concentration 7.0 μM, culture 22-24 hours.
Setting [13] is: NO, test concentration 7.0 μM, culture 22-24 hours.

For `CC(C)=CCC[C@@H](C)[C@H]1CC=C2C3=C(CC[C@@]21C)[C@@]1(C)CC[C@H](O)C(C)(C)C1CC3` (stereo partly drawn) [FF-MAS, 4,4-Dimethylcholest-8,14,24-trien-3β-ol, reference compound], the induction of meiosis result in the experiment with CEO and NO is “induce meiosis in CEO and NO in vitro”. Moreover, the “% GVB” value in experiment [1] (setting [5]) stood at 21.7%; in experiment [1] (setting [6]) it was 39.0%; in the experiment with naked oocytes (NO) [2] (setting [5]), 33.0%; in the experiment on naked oocytes (NO) [2] (setting [7]), 19.5%. Further, the “% PB” value in experiment [1] (setting [5]) was found to be 10.8%; in experiment [1] (setting [6]), 18.9%; with naked oocytes (NO) [2] (setting [5]), 7.8%; in the experiment on naked oocytes (NO) [2] (setting [7]), 9.5%.
Take `CC(C)CC[C@@H](O)[C@@H](C)[C@H]1CC[C@H]2[C@@H]3CC=C4C[C@@H](O)CC[C@]4(C)[C@H]3CC[C@]12C` [Example 22R, cholest-5-en-3β,(22R)-diol]: the “% GVB” value is on record as 6.9% in experiment [1] (setting [8]); 21% in experiment [1] (setting [9]); 16.9% in the experiment on naked oocytes (NO) [2] (setting [10]); 2.9% in the experiment on naked oocytes (NO) [2] (setting [8]); 4.6% with naked oocytes (NO) [2] (setting [11]). In addition, the “% PB” value in experiment [1] (setting [8]) stood at 3.4%; in experiment [1] (setting [9]), 3.5%; with naked oocytes (NO) [2] (setting [10]), 0%; in the experiment on naked oocytes (NO) [2] (setting [8]), 0%; with naked oocytes (NO) [2] (setting [11]) it was 0%. The “antagonism of FF-MAS induced resumption of meiosis” value (in experiment [1] (co-culture with FF-MAS); in the experiment with naked oocytes (NO) [2] (co-culture with FF-MAS)) was “antagonises the FF-MAS induced resumption of meiosis in a dose-related manner” in each case.
In the case of `CC(C)CCC[C@@H](C)[C@H]1CC[C@H]2[C@@H]3CC=C4[C@@H](O)[C@@H](O)CC[C@]4(C)[C@H]3CC[C@]12C` [cholest-5-en-3β,4β-diol], the “% GVB” value in experiment [3] (setting [12]) came out at 44.4%; in the experiment with naked oocytes (NO) [4] (setting [13]) it was 50.2%. The “% PB” value in experiment [3] (setting [12]) worked out at 25.9%; in the experiment with naked oocytes (NO) [4] (setting [13]) it was 17.2%. Besides, the induction of meiosis entry (in experiment [3] (cumulus enclosed oocyte cultured in vitro); with naked oocytes (NO) [4] (naked oocyte cultured in vitro)) was “induces meiosis” in each case.
